This note sets out measurements from ChEMBL document CHEMBL1154508, “Discovery of GSK345931A: An EP(1) receptor antagonist with efficacy in preclinical models of inflammatory pain” (Bioorg Med Chem Lett, 2009).

For one data set, the species on record is Rattus norvegicus. The experiment in a line: Antiinflammatory activity against complete Freund's adjuvant-induced hypersensitivity in rat inflammatory pain model. The format is functional.
In data set [1] the target is T1, Peroxisome proliferator-activated receptor delta (Homo sapiens, UniProt Q03181).
T1 sequence (Q03181 whole entry): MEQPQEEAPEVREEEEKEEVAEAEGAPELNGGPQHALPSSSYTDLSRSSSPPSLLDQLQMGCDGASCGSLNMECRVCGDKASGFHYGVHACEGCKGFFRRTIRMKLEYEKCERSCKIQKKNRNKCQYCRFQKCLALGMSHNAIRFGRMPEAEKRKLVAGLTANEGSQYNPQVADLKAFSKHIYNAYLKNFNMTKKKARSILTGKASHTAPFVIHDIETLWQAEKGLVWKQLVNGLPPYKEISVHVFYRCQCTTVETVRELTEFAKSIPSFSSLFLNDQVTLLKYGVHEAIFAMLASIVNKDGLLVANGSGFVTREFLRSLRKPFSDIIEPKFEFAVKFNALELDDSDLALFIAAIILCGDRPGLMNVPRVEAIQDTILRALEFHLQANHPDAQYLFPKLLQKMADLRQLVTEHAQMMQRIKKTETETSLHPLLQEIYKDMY
Description: Binding affinity PPARdelta.

The target in data set [2] is Voltage-gated inwardly rectifying potassium channel KCNH2 (Homo sapiens, UniProt Q12809). The experiment in a line: Displacement of [3H]dofetilide from human ERG receptor.
Chain of Voltage-gated inwardly rectifying potassium channel KCNH2 (Q12809 whole entry): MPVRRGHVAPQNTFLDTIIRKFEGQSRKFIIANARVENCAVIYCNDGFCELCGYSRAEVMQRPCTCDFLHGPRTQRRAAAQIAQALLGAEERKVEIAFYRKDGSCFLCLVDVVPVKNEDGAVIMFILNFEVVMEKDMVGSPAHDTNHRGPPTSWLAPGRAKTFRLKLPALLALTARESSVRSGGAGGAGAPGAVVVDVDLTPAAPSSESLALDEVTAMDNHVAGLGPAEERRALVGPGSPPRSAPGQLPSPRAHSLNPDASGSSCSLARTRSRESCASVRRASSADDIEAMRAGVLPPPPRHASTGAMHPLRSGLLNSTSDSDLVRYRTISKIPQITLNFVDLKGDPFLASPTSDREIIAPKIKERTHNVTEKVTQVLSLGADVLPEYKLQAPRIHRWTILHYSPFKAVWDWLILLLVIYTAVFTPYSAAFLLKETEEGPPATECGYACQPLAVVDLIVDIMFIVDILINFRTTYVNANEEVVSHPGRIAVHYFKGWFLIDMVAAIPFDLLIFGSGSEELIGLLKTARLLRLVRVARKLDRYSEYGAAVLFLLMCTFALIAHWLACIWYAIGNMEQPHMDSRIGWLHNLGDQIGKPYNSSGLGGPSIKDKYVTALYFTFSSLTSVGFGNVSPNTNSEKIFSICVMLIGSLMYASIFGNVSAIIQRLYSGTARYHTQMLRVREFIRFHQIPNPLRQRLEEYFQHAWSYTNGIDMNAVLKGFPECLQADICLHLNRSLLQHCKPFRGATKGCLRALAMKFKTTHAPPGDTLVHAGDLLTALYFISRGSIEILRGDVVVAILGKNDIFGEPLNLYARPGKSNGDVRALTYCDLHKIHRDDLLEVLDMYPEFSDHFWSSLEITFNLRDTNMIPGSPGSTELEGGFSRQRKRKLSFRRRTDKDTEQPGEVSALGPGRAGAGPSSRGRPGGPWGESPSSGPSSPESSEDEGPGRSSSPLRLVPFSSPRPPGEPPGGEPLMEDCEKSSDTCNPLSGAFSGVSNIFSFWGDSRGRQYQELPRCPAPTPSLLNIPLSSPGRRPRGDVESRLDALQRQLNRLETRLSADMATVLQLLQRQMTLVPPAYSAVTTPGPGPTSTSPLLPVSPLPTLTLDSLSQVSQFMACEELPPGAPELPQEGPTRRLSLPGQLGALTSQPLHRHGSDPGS
Data set [3] is described as follows: Ratio of drug level in brain to blood in complete Freund's adjuvant-induced rat inflammatory pain model 3 mg/kg, po after 1 hr. Format: ADME, organism-based. Set-up: dose 3 mg/kg, route oral.
A short description of data set [4]: Drug level in blood of sub-chronic rat joint pain efficacy model satellite animal group at 20 mg/kg bid measured on day 5 after 1 hr post dose. Format: ADME, organism-based. Set-up: dose 20 mg/kg. The conditions noted are these: read-out: Drug uptake.
Data set [5] in a line: Drug level in brain of complete Freund's adjuvant-induced rat inflammatory pain model at 2 mg/kg, po after 1 hr. Format: ADME, organism-based. More on the design: dose 2 mg/kg, route oral. The conditions noted are these: read-out: Drug uptake.
For data set [6], the target named is T2, Prostaglandin E2 receptor EP1 subtype (Homo sapiens, UniProt P34995).
T2 sequence (P34995 whole entry): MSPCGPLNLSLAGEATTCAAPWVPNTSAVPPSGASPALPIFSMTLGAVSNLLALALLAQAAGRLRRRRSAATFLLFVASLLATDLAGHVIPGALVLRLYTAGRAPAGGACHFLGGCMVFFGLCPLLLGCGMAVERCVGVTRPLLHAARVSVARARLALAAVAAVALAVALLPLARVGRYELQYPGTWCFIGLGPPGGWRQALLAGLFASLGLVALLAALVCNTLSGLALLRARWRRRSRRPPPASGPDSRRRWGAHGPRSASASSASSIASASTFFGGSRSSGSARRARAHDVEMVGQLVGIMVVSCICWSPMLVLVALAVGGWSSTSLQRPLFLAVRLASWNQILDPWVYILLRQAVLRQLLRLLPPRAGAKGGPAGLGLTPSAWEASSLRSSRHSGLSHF
Description: Binding affinity to human EP1 receptor.

For a further data set, the system named is Blood. The experiment in a line: Fraction unbound in rat blood. Format: ADME, tissue-based.
Data set [7] is described as follows: Oral bioavailability in cynomolgus monkey at 3 mg/kg. Format: ADME, organism-based, Macaca fascicularis. Particulars: in vivo.
The nature of data set [8]: Drug level in brain of complete Freund's adjuvant-induced rat inflammatory pain model at 10 mg/kg, po after 1 hr. Particulars: read-out: Drug uptake. More on the design: dose 10 mg/kg, route oral. Format: ADME, organism-based.
In data set [9] the target is T3, Peroxisome proliferator-activated receptor gamma (Homo sapiens, UniProt P37231).
T3 sequence (P37231 whole entry): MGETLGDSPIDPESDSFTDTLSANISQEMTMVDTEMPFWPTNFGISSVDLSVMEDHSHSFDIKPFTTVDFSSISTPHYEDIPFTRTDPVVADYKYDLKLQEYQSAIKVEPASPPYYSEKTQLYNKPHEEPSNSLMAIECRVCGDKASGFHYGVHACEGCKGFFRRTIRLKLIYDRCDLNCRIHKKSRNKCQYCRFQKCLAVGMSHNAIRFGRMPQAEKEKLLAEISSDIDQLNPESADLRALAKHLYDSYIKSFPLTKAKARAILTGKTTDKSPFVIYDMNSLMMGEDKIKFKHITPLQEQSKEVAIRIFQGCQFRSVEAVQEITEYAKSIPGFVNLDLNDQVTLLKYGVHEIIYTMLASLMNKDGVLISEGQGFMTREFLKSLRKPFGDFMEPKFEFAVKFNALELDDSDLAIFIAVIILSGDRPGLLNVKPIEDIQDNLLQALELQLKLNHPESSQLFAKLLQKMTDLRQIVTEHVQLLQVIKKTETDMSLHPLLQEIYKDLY
The experiment in a line: Activity at PPARgamma.

The nature of data set [10]: Blood clearance in cynomolgus monkey at 1 mg/kg, iv. Format: ADME, organism-based, Macaca fascicularis. Set-up: dose 1 mg/kg, route intravenous.
Data set [11] deals with T2, Prostaglandin E2 receptor EP1 subtype. Description: Binding affinity to EP1 receptor.
A short description of data set [12]: Ratio of drug level in brain to blood of sub-chronic rat joint pain efficacy model treatment group at 20 mg/kg bid measured on day 5 after 1 hr post dose. Set-up: dose 20 mg/kg. Format: ADME, organism-based.
The next data set addresses T4, Thromboxane A2 receptor (Homo sapiens, UniProt P21731).
T4 sequence (P21731 whole entry): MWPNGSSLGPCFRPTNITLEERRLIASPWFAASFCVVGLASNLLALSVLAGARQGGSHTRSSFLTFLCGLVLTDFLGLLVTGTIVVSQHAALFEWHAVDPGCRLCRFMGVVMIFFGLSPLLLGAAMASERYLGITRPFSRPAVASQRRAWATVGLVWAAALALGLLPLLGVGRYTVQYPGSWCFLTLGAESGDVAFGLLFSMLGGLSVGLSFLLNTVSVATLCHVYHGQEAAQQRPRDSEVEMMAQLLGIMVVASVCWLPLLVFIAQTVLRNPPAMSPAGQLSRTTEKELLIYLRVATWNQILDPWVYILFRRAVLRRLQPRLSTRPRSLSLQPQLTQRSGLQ
Description: Binding affinity to TP receptor.

Data set [13] in a line: Drug level in blood of sub-chronic rat joint pain efficacy model satellite animal group at 5 mg/kg bid measured on day 1 after 1 hr post dose. Format: ADME, organism-based. Set-up: dose 5 mg/kg. Particulars: read-out: Drug uptake.
Data set [14] has as its target T5, Peroxisome proliferator-activated receptor alpha (Homo sapiens, UniProt Q07869).
T5 sequence (Q07869 whole entry): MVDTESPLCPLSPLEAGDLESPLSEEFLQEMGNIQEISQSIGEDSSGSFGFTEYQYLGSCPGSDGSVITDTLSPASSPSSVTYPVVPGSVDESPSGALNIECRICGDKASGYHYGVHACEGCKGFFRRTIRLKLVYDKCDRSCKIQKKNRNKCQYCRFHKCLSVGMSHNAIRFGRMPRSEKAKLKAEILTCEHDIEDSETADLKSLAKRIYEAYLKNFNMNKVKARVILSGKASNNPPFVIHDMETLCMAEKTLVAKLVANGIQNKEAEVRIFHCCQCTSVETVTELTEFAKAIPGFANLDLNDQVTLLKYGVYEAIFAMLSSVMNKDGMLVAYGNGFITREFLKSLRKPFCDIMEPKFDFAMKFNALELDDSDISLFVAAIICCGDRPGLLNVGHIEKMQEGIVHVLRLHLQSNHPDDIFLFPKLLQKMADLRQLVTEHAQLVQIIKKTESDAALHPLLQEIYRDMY
Description: Activity at PPARalpha.

Data set [15] is described as follows: Drug level in brain of complete Freund's adjuvant-induced rat inflammatory pain model at 1 mg/kg, po after 1 hr. Particulars: read-out: Drug uptake. Format: ADME, organism-based. More on the design: dose 1 mg/kg, route oral.
Data set [16] in a line: Drug level in brain of sub-chronic rat joint pain efficacy model treatment group at 5 mg/kg bid measured on day 5 after 1 hr post dose. The format is ADME, organism-based. Set-up: dose 5 mg/kg. Particulars: read-out: Drug uptake.

`CC(C)COc1ccc(Cl)cc1-c1ccccc1-c1cccc(C(=O)[O-])n1.[Na+]`: the ED50 (usually the dose that gives a 50% effect, or the effect in half of the subjects) in the data set listed under Rattus norvegicus is 1.6 mg/kg. Besides, the Ki – broadly, a dissociation constant, usually derived from enzyme kinetics or from competition with a known ligand – in data set [1] was greater than 20000 nM; at Thromboxane A2 receptor it was 316 nM. The 50% inhibitory concentration (IC50) – broadly, the concentration that inhibits the measured activity by half – in data set [2] is greater than 31600 nM; in data set [6], 16 nM; in data set [11], 15.8 nM. Moreover, the concentration ratio (Kp) (as a rule, tissue or fluid exposure divided by exposure in the circulation) at 1 h came out at 0.72 in [3] and 0.45 in data set [12]. Also, the concentration at 1 h in [4] amounted to 6.77 µM; in [5] it was 0.645 µM; in data set [8], 7.26 µM; in data set [13] it was 5.27 µM; in data set [15], 0.317 µM; in data set [16] it was 1.07 µM. Also, in the data set with Blood, the Fu is 0.5%. Besides, the bioavailability (as a rule, dose-corrected exposure relative to a reference, in per cent) in data set [7] came out at 34%. The EC50 (usually the concentration that produces a half-maximal response) is 3980 nM in data set [9] and greater than 10000 nM in data set [14]. In data set [10], the clearance – broadly, the rate of elimination divided by the concentration – came out at 26 mL/min/kg.
